In assay [1] the target is T1, human, rat and chimeric human-rat TF constructs expressed on HEK293 cells (Homo sapiens, UniProt P13726, K197R/S192D/S195T).
T1 construct: expressed in transfected cells; host or cells: HEK293
Put plainly: Live cell staining assay on chimeric TF constructs (epitope binning). Format: cell-based. As to conditions: construct h159-166_r (3), human segment replaced by rat segment. How it is done: (§1) To establish binding of the anti-human TF antibodies to the various TF constructs, HEK293 cells were transfected with a DNA plasmid that co-expresses the TF construct and a green fluorescent protein marker. […] Two days after transfection, cells were collected from the tissue culture plate, stained with 15 μg/ml of the indicated anti-TF antibody, washed, stained with anti-human IgG-Fc Alexa Fluor 647 polyclonal antibody, washed, and stained with the viability dye 4′,6-Diamidino-2-Phenylindole, Dihydrochloride. Upon acquisition of 80,000 live events on a flow cytometer, live cells marked with the fluorescent marker were analyzed for the degree of staining by the anti-TF antibody. […] As used herein, the term “live cell staining assay” refers to the antibody binding assay used in this example.
(§2) When “Percentage antibody binding to TF construct relative to hTF” in Tables 51 and 52 was less than 50%, the antibody was considered a non-binder (0) in Tables 53 and 54.
(§3) Each antibody was assigned to an epitope bin in Table 55 based on the combination of unbound constructs from Table 53.

In assay [2] the target is T2, human, rat and chimeric human-rat TF constructs expressed on HEK293 cells (Homo sapiens, UniProt P13726, S192D).
T2 construct: expressed in transfected cells; host or cells: HEK293
Described as above. In kind it is cell-based. As to conditions: construct h159-219_r (27), human segment replaced by rat segment. How it is done: as §1, §2, §3

The target of assay [3] is T3, human, rat and chimeric human-rat TF constructs expressed on HEK293 cells (Homo sapiens, UniProt P13726, N203H/T229K).
T3 construct: expressed in transfected cells; host or cells: HEK293
The description is as above. In kind it is cell-based. As to conditions: construct hTF_N171H_T197K. How it is done:
as §1, §2, §3

Assay [4] deals with human, rat and chimeric human-rat TF constructs expressed on HEK293 cells. Described as above. In kind it is cell-based. As to conditions: for Antibody binding to TF construct: human segment replaced by rat segment. As to the method: as §1, §2, §3
Assay [5] concerns the target T4, human, rat and chimeric human-rat TF constructs expressed on HEK293 cells (Homo sapiens, UniProt P13726, D177Q/S174T).
T4 construct: expressed in transfected cells; host or cells: HEK293
The assay is described as above. In kind it is cell-based. As to conditions: construct h140-145_r (2), human segment replaced by rat segment. How it is done: as §1, §2, §3

Assay [6] concerns the target T5, human, rat and chimeric human-rat TF constructs expressed on HEK293 cells (Homo sapiens, UniProt P13726, I184G/T186I/W190R/Y188T).
T5 construct: expressed in transfected cells; host or cells: HEK293
The description is as above. In kind it is cell-based. As to conditions: construct h152-158_r (4), human segment replaced by rat segment. How it is done: as §1, §2, §3

Assay [7] deals with T6, TF:FVIIa on MDA-MB-231 cells (Homo sapiens, UniProt P13726).
T6 construct: MDA-MB-231 cells (ATCC, Manassas, Va., USA) were plated; host or cells: MDA-MB-231
Put plainly: FXa conversion assay. In kind it is cell-based. As to conditions: concentrations of 25, 50, and 100 nM; FIG. 14A.
Method: To evaluate the ability of TF:FVIIa to convert FX into FXa in the presence of human antibodies against TF, 5×10^4 MDA-MB-231 cells (ATCC, Manassas, Va., USA) were plated into tissue culture-treated black 96-well plates (Greiner Bio-One, Monroe, N.C., USA). […] Upon reconstitution of the binary TF:FVIIa complex with a final concentration of 20 nM of FVIIa, cells were incubated for 5 min at 37° C.
Briefly, 5×10^4 MDA-MB-231 cells (ATCC, Manassas, Va., USA) were plated into tissue culture-treated black 96-well plates (Greiner Bio-One, Monroe, N.C., USA) and cultured overnight. […] Upon reconstitution of the binary TF:FVIIa complex with a final concentration of 20 nM of FVIIa, cells were incubated for 5 min at 37° C.

Assay [8] relates to human thrombin generation (relipidated TF, normal pooled plasma). As to the kind of experiment: Thrombin generation assay (TGA). Format: biochemical. As to conditions: 100 nM antibody, Example 18. How it is done: (§4) The TGA assay was performed using the calibrated-automated-thrombogram (CAT) instrument manufactured and distributed by STAGO. The test method design was equivalent to a standard CAT assay measurement, except that the plasma source was NPP in citrate/CTI. […] Relipidated TF was added to a 96-well assay plate, followed by addition of the antibody/NPP mixture. After a 10-min incubation or directly after combining the relipidated TF with antibody/NPP, thrombin generation was initiated by the addition of calcium and the thrombin substrate. The STAGO software was used to report the following parameters: Peak IIa (highest thrombin concentration generated [nM]); Lag Time (time to IIa generation [min]); ETP (endogenous thrombin potential, area under the curve [nM×min]); and ttPeak (time to Peak IIa [min]).
as §4, with “was normal pooled plasma (NPP)” for “was NPP”, “in citrate supplemented with corn trypsin inhibitor (citrate/CTI).” for “in citrate/CTI.”
TGA assay was performed using the calibrated-automated-thrombogram (CAT) instrument manufactured and distributed by STAGO (Diagnostica Stago SAS, Asnieres sur Seine, France). […] The anti-TF antibodies were titrated at 0, 10, 50 and 100 nM and mixed with NPP in citrate/CTI. Relipidated TF was added to a 96-well assay plate, followed by addition of the antibody/NPP mixture. After a 10-min incubation or directly after combining the relipidated TF with antibody/NPP, thrombin generation was initiated by the addition of calcium and the thrombin substrate. The STAGO software was used to report the following parameters: Peak IIa (highest thrombin concentration generated on the thrombin generation curve [nM]); Lag Time (time from assay start to the moment 10 nM of thrombin is formed [min]); ETP (endogenous thrombin potential, area under the curve [nM×min]); and ttPeak (time from assay start to Peak IIa [min]). […] As used herein, the term “thrombin generation assay” (TGA) refers to the TGA used in this example.

Assay [9] addresses T7, human TF on MDA-MB-231 cells (43D7-Alexa488 binding) (Homo sapiens, UniProt P13726).
T7 construct: TF-positive MDA-MB-231 cells (ATCC, Manassas, Va., USA); host or cells: MDA-MB-231
Put plainly: Antibody competition assay with 43D7. As to conditions: pre-incubation with unlabeled competitor antibody. As to the method:
(§5) Alexa Fluor antibodies were generated using Alexa Fluor 488 5-sulfo-[…] esters (ThermoFisher Scientific) following manufacturer's protocol. Excess Alexa Fluor dye was removed from the antibody dye conjugate preparations by gel filtration (ThermoFisher Scientific).
(§6) After another 1 hr incubation on ice, cells were washed, stained with a viability dye, and analyzed by flow cytometry. The Alexa488 fluorescence data from viable cells was summarized using median fluorescence intensity.

The target in assay [10] is T8, human TF on MDA-MB-231 cells (39A-Alexa488 binding) (Homo sapiens, UniProt P13726).
T8 construct: TF-positive MDA-MB-231 cells (ATCC, Manassas, Va., USA); host or cells: MDA-MB-231
As to the kind of experiment: Antibody competition assay with 39A. As to conditions: pre-incubation with unlabeled competitor antibody. How it is done: as §5, §6

In the case of TF-011 [reference compound], the “Antibody binding to TF construct” value in assay [1] was 1 (between 50% and 150%, the antibody was considered a binder (1)); in assay [2], 1 (between 50% and 150%, the antibody was considered a binder (1)); in assay [3] it was 1 (between 50% and 150%, the antibody was considered a binder (1)); in assay [4] (construct h1-38_r (14)) it was 1 (between 50% and 150%, the antibody was considered a binder (1)); in [4] (construct h1-77_r (25)), 0 (less than 50%, the antibody was considered a non-binder (0)); in assay [4] (construct h1-107_r (52)), 0 (less than 50%, the antibody was considered a non-binder (0)). The “Antibody binding to TF construct” value in assay [4] (construct h78-93_r (18)) is 1 (between 50% and 150%, the antibody was considered a binder (1)); in assay [4] (construct h78-107_r.v2 (27)) it was 0 (less than 50%, the antibody was considered a non-binder (0)); in [5], 1 (between 50% and 150%, the antibody was considered a binder (1)); in assay [6] it was 1 (between 50% and 150%, the antibody was considered a binder (1)). Further, the “Epitope Bin” value in assay [4] (assignment based on unbound chimeric constructs) worked out at 1. For the same substance, the “Constructs not bound by antibody” value in assay [4] (chimeric human-rat TF constructs of Table 53) is listed as “rTF, h1-107_r, h1-77_r, h39-77_r, h78-107_r, h78-107_r.v2, h94-107_r”. Also, the “inhibition of FX conversion” value in assay [7] is given as 57-59%. Further, the “reduction of the peak IIa concentration” value in assay [8] (10 min antibody pre-incubation) and in assay [8] (without antibody pre-incubation) was 91% throughout. Also, in assay [9], the “% 43D7 binding” value is on record as “did not reduce”. Further, the “% 39A binding” value in assay [10] is on record as “reduced”.

The values are drawn from patent publication US11447566B2, “Anti-tissue factor antibodies, antibody-drug conjugates, and related methods” (Iconic Therapeutics, Inc., priority 2018, dated 2022).
